Where two headings read alike, the source gives them in different places.
How the values were obtained:
[1] = molecular target: T1, p70S6K human enzyme (Homo sapiens, UniProt P23443, T412E); assay: p70S6K inhibition assay (IMAP FP); assay type: biochemical;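 further: kinase reaction run at room temperature, phosphorylated substrate captured on IMAP beads and read as fluorescence polarization in mP, IC50 then converted to Ki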
T1 construct: purchased Upstate Chemicon 14-486

[2] = molecular target: T2, Akt3 human enzyme (Homo sapiens, UniProt Q9Y243); assay: Akt3 inhibition assay (IMAP FP); assay type: biochemical;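 further: kinase reaction run 60 min at room temperature after 30 µM ATP start, phosphorylated substrate captured on IMAP beads and read as fluorescence polarization (mP)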
T2 construct: purchased Upstate Chemicon 14-502
T2 sequence (Q9Y243 whole entry): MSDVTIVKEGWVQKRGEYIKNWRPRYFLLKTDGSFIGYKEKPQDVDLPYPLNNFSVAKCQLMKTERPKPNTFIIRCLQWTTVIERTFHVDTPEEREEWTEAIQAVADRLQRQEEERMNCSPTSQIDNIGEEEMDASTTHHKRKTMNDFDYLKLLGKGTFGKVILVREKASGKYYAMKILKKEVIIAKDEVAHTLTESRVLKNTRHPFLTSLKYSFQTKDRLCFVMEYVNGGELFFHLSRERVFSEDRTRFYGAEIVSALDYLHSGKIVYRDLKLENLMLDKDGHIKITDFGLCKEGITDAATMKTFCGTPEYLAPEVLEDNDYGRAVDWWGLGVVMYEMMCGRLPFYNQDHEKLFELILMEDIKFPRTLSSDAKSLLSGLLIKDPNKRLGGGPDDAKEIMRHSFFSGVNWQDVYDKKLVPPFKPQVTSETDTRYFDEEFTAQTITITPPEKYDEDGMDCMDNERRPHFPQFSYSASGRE

[3] = molecular target: T3, ROCK2 (Homo sapiens, UniProt O75116); assay: Rho kinase inhibition assay (IMAP fluorescence polarization), ROCK2; assay type: biochemical;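 further: kinase reaction started with 10 µM ATP and run 60 min at room temperature, then phosphorylated substrate captured on IMAP beads for 30 min and fluorescence polarization read in mP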
T3 construct: purchased Upstate/Chemicon 14-451
T3 sequence (O75116 11-552 limits assumed): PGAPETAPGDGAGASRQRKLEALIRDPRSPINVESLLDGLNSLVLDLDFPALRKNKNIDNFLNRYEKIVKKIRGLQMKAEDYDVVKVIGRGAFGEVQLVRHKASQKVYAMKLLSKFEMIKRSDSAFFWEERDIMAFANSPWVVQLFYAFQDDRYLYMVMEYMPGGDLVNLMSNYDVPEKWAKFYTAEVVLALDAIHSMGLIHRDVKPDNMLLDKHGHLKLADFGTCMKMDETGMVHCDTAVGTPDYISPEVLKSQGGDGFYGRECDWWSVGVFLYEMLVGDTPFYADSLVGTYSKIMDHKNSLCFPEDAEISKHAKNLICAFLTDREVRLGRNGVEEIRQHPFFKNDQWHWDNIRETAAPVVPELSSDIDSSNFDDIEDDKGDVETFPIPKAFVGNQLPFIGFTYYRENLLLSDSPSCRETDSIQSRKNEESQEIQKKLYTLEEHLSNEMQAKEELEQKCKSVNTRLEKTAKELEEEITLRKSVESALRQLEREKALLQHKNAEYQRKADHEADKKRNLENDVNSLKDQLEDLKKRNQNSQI
Protocol: (§1) Following the pre-incubation, 10 μM ATP was added to initiate the reaction. After 60 minutes at room temperature, Molecular Devices IMAP™ binding solution was added to bind phosphorylated substrate. After 30 minutes of incubation in the presence of the IMAP™ beads, the fluorescence polarization was read and the ratio was reported as mP. IC50 values for compounds and EC50 values for ATP were calculated using the Prism software from Graphpad.

[4] = Compound plasma concentrations in unsensitized mice at 15 min post administration; assay type: in vivo; conditions: mouse, 15 μmol/kg; mean compound plasma concentration in mice at 15 minutes post oral administration; read-out: Mouse Oral PK
Protocol: Additionally, compound concentrations were determined in the plasma and lungs of male, ovalbumin-sensitized, Balb/c mice from a murine model of asthma. Test compounds were formulated in water or 1% polysorbate 80 and dosed at 15 μmol/kg for intraperitoneal (IP) or oral (PO) administration or formulated for intratracheal (IT) administration and dosed at 5 μmol/kg, which directly targets the lungs. Following completion of the in vivo study, mice were euthanized and blood and plasma collected approximately 2.5-3 hours post administration of test compound for bronchodialator (BD) studies and 24 hours post administration for anti-inflamatory (AI) studies. Lungs were homogenized in Matrix A lysing tubes using a FastPrep 24 tissue and cell homogenizer (MP Biomedicals, Solon, Ohio). Both plasma samples and lung extracts were assayed for compound concentrations using an on-line, solid phase extraction LC/MS/MS system.

[5] = molecular target: T4, ROCK1 (Homo sapiens, UniProt Q13464); assay: Rho kinase inhibition assay (IMAP fluorescence polarization), ROCK1; assay type: biochemical;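 further: kinase reaction run 60 min at room temperature, then phosphorylated substrate captured on IMAP beads for 30 min, with fluorescence polarization read in mP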
T4 construct: purchased Upstate/Chemicon 14-601
T4 sequence (Q13464 17-535 limits assumed): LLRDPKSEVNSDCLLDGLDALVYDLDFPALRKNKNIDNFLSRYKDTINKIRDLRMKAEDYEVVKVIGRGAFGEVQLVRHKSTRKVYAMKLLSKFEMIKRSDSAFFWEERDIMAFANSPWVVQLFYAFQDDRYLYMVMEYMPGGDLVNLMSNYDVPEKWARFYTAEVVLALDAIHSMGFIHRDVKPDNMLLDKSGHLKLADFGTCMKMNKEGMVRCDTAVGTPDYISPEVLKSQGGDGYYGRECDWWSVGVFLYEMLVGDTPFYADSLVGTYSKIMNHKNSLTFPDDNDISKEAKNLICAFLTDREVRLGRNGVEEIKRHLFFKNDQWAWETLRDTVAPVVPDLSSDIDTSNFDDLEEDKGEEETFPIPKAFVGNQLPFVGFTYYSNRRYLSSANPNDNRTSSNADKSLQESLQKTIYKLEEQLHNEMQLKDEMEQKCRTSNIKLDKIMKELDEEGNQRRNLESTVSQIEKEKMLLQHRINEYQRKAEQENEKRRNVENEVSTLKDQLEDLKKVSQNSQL
Protocol: as §1

[6] = 30 μM ATP, Ki=IC50/(1+([ATP Challenge]/EC50 ATP)), read-out: p70S6K Ki, Avg
[7] = average Ki, read-out: p70S6K Ki
[8] = 30 μM ATP, Ki=IC50/(1+([ATP Challenge]/EC50 ATP)), read-out: Akt3 Ki, Avg
[9] = 10 μM ATP, read-out: ROCK2 Ki, Avg

T1 sequence (P23443 1-421 T412E limits assumed): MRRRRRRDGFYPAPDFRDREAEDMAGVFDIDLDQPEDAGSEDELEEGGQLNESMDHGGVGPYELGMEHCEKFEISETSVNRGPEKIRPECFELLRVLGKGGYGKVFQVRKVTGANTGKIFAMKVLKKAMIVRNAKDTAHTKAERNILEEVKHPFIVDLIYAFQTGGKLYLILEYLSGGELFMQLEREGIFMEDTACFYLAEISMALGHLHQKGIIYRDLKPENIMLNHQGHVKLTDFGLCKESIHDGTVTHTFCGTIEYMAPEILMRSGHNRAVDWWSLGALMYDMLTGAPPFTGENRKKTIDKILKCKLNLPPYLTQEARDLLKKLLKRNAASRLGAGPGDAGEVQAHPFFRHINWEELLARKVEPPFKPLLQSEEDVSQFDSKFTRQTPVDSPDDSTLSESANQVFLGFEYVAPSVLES

Work on `c1ccc2c(CN3CCC[C@@H](Nc4ccc5[nH]ncc5c4)C3)c[nH]c2c1` [Compound 1.252, (R)-N-(1-((1H-indol-3-yl)methyl)piperidin-3-yl)-1H-indazol-5-amine] yielded a Ki [1, 6] of 0.171 µM, a Ki [1, 7] of 0.171 µM and a Ki [2, 8] of 0.205 µM. The Ki ([2]; average Ki, read-out: Akt3 Ki) was 0.205 µM, the Ki [3, 9] was 0.0045 µM and the Ki ([3]; average Ki, read-out: ROCK2 Ki) was 0.0045 µM. The concentration at 15 min [4] was 1.26 µM, the Ki ([5]; Avg, 10 μM ATP) was 0.0305 µM and the Ki ([5]; average Ki) was 0.0305 µM.
With `CCOC(=O)COc1cccc(CN2CCC[C@H](Nc3ccc4[nH]ncc4c3)C2)c1` [Compound 1.200, (S)-ethyl 2-(3-((3-(1H-indazol-5-ylamino)piperidin-1-yl)methyl)phenoxy)acetate] the Ki [1, 6] was 3.9 µM, the Ki [1, 7] was 3.9 µM and the Ki [2, 8] was 10.6 µM. For the same compound, the Ki ([2]; average Ki, read-out: Akt3 Ki) was 10.6 µM, the Ki [3, 9] was 0.0059 µM and the Ki ([3]; average Ki, read-out: ROCK2 Ki) was 0.0059 µM. It also gave a concentration at 15 min [4] of 0 µM, a Ki ([5]; Avg, 10 μM ATP) of 0.0765 µM and a Ki ([5]; average Ki) of 0.0765 µM.
Work on `Oc1cccc(CN2CCC[C@H](Nc3ccc4[nH]ncc4c3)C2)c1` [Compound 1.163, (S)-3-((3-(1H-indazol-5-ylamino)piperidin-1-yl)methyl)phenol] yielded a Ki [1, 6] of 1.88 µM, a Ki [1, 7] of 1.88 µM and a Ki [2, 8] of 4.42 µM. For the same compound, the Ki ([2]; average Ki, read-out: Akt3 Ki) was 4.42 µM, the Ki [3, 9] was 0.0029 µM and the Ki ([3]; average Ki, read-out: ROCK2 Ki) was 0.0029 µM. The concentration at 15 min [4] was 0.01 µM, the Ki ([5]; Avg, 10 μM ATP) was 0.0336 µM and the Ki ([5]; average Ki) was 0.0336 µM.
With `Cc1ccc(CN2CCC[C@@H](Nc3ccc4[nH]ncc4c3)C2)cc1` [Compound 1.133, (R)-N-(1-(4-methylbenzyl)piperidin-3-yl)-1H-indazol-5-amine] the Ki [1, 6] was 0.532 µM, the Ki [1, 7] was 0.532 µM and the Ki [2, 8] was 0.148 µM. For the same compound, the Ki ([2]; average Ki, read-out: Akt3 Ki) was 0.148 µM, the Ki [3, 9] was 0.0043 µM and the Ki ([3]; average Ki, read-out: ROCK2 Ki) was 0.0043 µM. It also gave a concentration at 15 min [4] of 1.1 µM, a Ki ([5]; Avg, 10 μM ATP) of 0.025 µM and a Ki ([5]; average Ki) of 0.025 µM.
Work on `OCCn1ccc2ccc(CN3CC[C@@H](Nc4cccc5cnccc45)C3)cc21` [Compound 2.060, (R)-2-(6-((3-(isoquinolin-5-ylamino)pyrrolidin-1-yl)methyl)-1H-indol-1-yl)ethanol] yielded a Ki [1, 6] of 0.181 µM, a Ki [1, 7] of 0.181 µM and a Ki [2, 8] of 0.329 µM. For the same compound, the Ki ([2]; average Ki, read-out: Akt3 Ki) was 0.329 µM, the Ki [3, 9] was 0.0032 µM and the Ki ([3]; average Ki, read-out: ROCK2 Ki) was 0.0032 µM. For the same compound, the concentration at 15 min [4] was 0.308 µM, the Ki ([5]; Avg, 10 μM ATP) was 0.0049 µM and the Ki ([5]; average Ki) was 0.0049 µM.
`C#Cc1ccc(CN2CCC[C@H](Nc3ccc4[nH]ncc4c3)C2)cc1` [Compound 1.077, (S)-N-(1-(4-ethynylbenzyl)piperidin-3-yl)-1H-indazol-5-amine] showed a Ki [1, 6] of 0.716 µM, a Ki [1, 7] of 0.716 µM and a Ki [2, 8] of 5.25 µM. For the same compound, the Ki ([2]; average Ki, read-out: Akt3 Ki) was 5.25 µM, the Ki [3, 9] was 0.0111 µM and the Ki ([3]; average Ki, read-out: ROCK2 Ki) was 0.0111 µM. It also gave a concentration at 15 min [4] of 0.026 µM, a Ki ([5]; Avg, 10 μM ATP) of 0.0761 µM and a Ki ([5]; average Ki) of 0.0761 µM.
With `Clc1ccc(CN2CCC[C@H](Nc3ccc4[nH]ncc4c3)C2)cc1` [Compound 1.141, (S)-N-(1-(4-chlorobenzyl)piperidin-3-yl)-1H-indazol-5-amine] the Ki [1, 6] was 0.387 µM, the Ki [1, 7] was 0.387 µM and the Ki [2, 8] was 1.26 µM. For the same compound, the Ki ([2]; average Ki, read-out: Akt3 Ki) was 1.26 µM, the Ki [3, 9] was 0.0038 µM and the Ki ([3]; average Ki, read-out: ROCK2 Ki) was 0.0038 µM. The concentration at 15 min [4] was 1.64 µM, the Ki ([5]; Avg, 10 μM ATP) was 0.0285 µM and the Ki ([5]; average Ki) was 0.0285 µM.
With `c1cc(CN2CCC[C@H](Nc3ccc4[nH]ncc4c3)C2)cc(C2CC2)c1` [Compound 1.186, (S)-N-(1-(3-cyclopropylbenzyl)piperidin-3-yl)-1H-indazol-5-amine] the Ki [1, 6] was 1.61 µM, the Ki [1, 7] was 1.61 µM and the Ki [2, 8] was 10.2 µM. It also gave a Ki ([2]; average Ki, read-out: Akt3 Ki) of 10.2 µM, a Ki [3, 9] of 0.0119 µM and a Ki ([3]; average Ki, read-out: ROCK2 Ki) of 0.0119 µM. For the same compound, the concentration at 15 min [4] was 2.17 µM, the Ki ([5]; Avg, 10 μM ATP) was 0.129 µM and the Ki ([5]; average Ki) was 0.129 µM.
For `Brc1ccc(CN2CCC[C@@H](Nc3ccc4[nH]ncc4c3)C2)cc1` [Compound 1.134, (R)-N-(1-(4-bromobenzyl)piperidin-3-yl)-1H-indazol-5-amine], the Ki [1, 6] was 0.52 µM, the Ki [1, 7] was 0.52 µM and the Ki [2, 8] was 0.151 µM. The Ki ([2]; average Ki, read-out: Akt3 Ki) was 0.151 µM, the Ki [3, 9] was 0.0044 µM and the Ki ([3]; average Ki, read-out: ROCK2 Ki) was 0.0044 µM. For the same compound, the concentration at 15 min [4] was 1.55 µM, the Ki ([5]; Avg, 10 μM ATP) was 0.0224 µM and the Ki ([5]; average Ki) was 0.0224 µM.

From US20090325959A1 (priority 2008, published 2009)
